Assay results taken from US11492347B2 (ENYO PHARMA, priority 2018, dated 2022).
Structures can show the parent of a compound that is named as a salt.

The compounds below were run on H1N1 (influenza A/New Caledonia/20/99) (assay: microbe, parasite or virus in culture). Settings: H1N1, A549, 48 h.
Assay type: cell-based

Compound	IC50 [nM]
O=C(Nc1sc2c(c1C(=O)O)CCC1(CC1)C2)c1ccc(N2CCOCC2)cc1 [Compound #31, 2-[(4-Morpholinobenzoyl)amino]spiro[5,7-dihydro-4H-benzothiophene-6,1′-cyclopropane]-3-carboxylic acid]	100
O=C(Nc1sc2c(c1C(=O)O)CCC1(CC1)C2)c1ccc(F)cc1 [Compound #32, 2-[(4-Fluorobenzoyl)amino]spiro[5,7-dihydro-4H-benzothiophene-6,1′-cyclopropane]-3-carboxylic acid]	160
CC1(C)Cc2c(sc(NC(=O)c3ccc(N4CCC(O)CC4)cc3)c2C(=O)O)C(C)(C)C1 [Compound #34, 2-[[4-(4-Hydroxy-1-piperidyl)benzoyl]amino]-5,5,7,7-tetramethyl-4,6-dihydrobenzothiophene-3-carboxylic acid]	113
COc1ccc(C(=O)Nc2sc3c(c2C(=O)O)C(C)(C)CC3)cc1OC [Compound #38, 2-[(3,4-Dimethoxybenzoyl)amino]-4,4-dimethyl-5,6-dihydrocyclopenta[b]thiophene-3-carboxylic acid]	339
CC1(C)CCc2sc(NC(=O)c3ccc(OC(F)F)cc3)c(C(=O)O)c21 [Compound #39, 2-[[4-(Difluoromethoxy)benzoyl]amino]-4,4-dimethyl-5,6-dihydrocyclopenta[b]thiophene-3-carboxylic acid]	277
CC1(C)CCc2sc(NC(=O)c3ccc(OC(F)(F)F)cc3)c(C(=O)O)c21 [Compound #40, 4,4-Dimethyl-2-[[4-(trifluoromethoxy)benzoyl]amino]-5,6-dihydrocyclopenta[b]thiophene-3-carboxylic acid]	230
CC1(C)CCc2sc(NC(=O)c3ccc(N4CCOCC4)cc3)c(C(=O)O)c21 [Compound #41, 4,4-Dimethyl-2-[(4-morpholinobenzoyl)amino]-5,6-dihydrocyclopenta[b]thiophene-3-carboxylicacid]	105
CC1(C)CCCc2sc(NC(=O)c3ccccc3)c(C(=O)O)c21 [Compound #42, 2-Benzamido-4,4-dimethyl-6,7-dihydro-5H-benzothiophene-3-carboxylic acid]	192
CC1CC(C)(C)c2sc(NC(=O)c3ccccc3)c(C(=O)O)c21 (stereo not drawn) [Compound #43, 2-Benzamido-4,6,6-trimethyl-4,5-dihydrocyclopenta[b]thiophene-3-carboxylic acid]	280
CC1CC(C)(C)Cc2sc(NC(=O)c3ccccc3)c(C(=O)O)c21 (stereo not drawn) [Compound #44, 2-Benzamido-4,6,6-trimethyl-5,7-dihydro-4H-benzothiophene-3-carboxylic acid]	90
CC1(C)Cc2c(sc(NC(=O)c3ccc(NCC4COC4)cc3)c2C(=O)O)C(C)(C)C1 [Compound #59, 5,5,7,7-Tetramethyl-2-[[4-(oxetan-3-ylmethylamino)benzoyl]amino]-4,6-dihydrobenzothiophene-3-carboxylic acid]	10
CC1(C)Cc2c(sc(NC(=O)c3ccc(NC4CCOC4)cc3)c2C(=O)O)C(C)(C)C1 (stereo not drawn) [Compound #61, 5,5,7,7-Tetramethyl-2-[[4-(tetrahydrofuran-3-ylamino)benzoyl]amino]-4,6-dihydrobenzothiophene-3-carboxylic acid]	27.9
CC(=O)N1CCC(Nc2ccc(C(=O)Nc3sc4c(c3C(=O)O)CC(C)(C)CC4(C)C)cc2)CC1 [Compound #63, 2-[[4-[(1-Acetyl-4-piperidyl)amino]benzoyl]amino]-5,5,7,7-tetramethyl-4,6-dihydrobenzothiophene-3-carboxylic acid]	80
COCCNc1ccc(C(=O)Nc2sc3c(c2C(=O)O)C(C)(C)CC3)cc1 [Compound #64, 2-[[4-(2-Methoxyethylamino)benzoyl]amino]-4,4-dimethyl-5,6-dihydrocyclopenta[b]thiophene-3-carboxylicacid]	90
CC1(C)CCc2sc(NC(=O)c3ccc(N4CCOCC4)nc3)c(C(=O)O)c2C1 [Compound #65, 5,5-Dimethyl-2-[(6-morpholinopyridine-3-carbonyl)amino]-6,7-dihydro-4H-benzothiophene-3-carboxylic acid]	200
CC1(C)CCc2sc(NC(=O)c3ccc(N4CCC(O)CC4)cc3)c(C(=O)O)c21 [Compound #78, 2-[[4-(4-Hydroxy-1-piperidyl)benzoyl]amino]-4,4-dimethyl-5,6-dihydrocyclopenta[b]thiophene-3-carboxylic acid]	290
CN1CCN(c2ccc(C(=O)Nc3sc4c(c3C(=O)O)CC(C)(C)CC4(C)C)cc2)CC1 [Compound #80, 5,5,7,7-Tetramethyl-2-[[4-(4-methylpiperazin-1-yl)benzoyl]amino]-4,6-dihydrobenzothiophene-3-carboxylic acid]	310
CC1(C)Cc2c(sc(NC(=O)c3ccccn3)c2C(=O)O)C(C)(C)C1 [Compound #90, 5,5,7,7-Tetramethyl-2-(pyridine-2-carbonylamino)-4,6-dihydrobenzothiophene-3-carboxylic acid]	600

Compound	IC50 [nM]
COc1ccc(C(=O)Nc2sc3c(c2C(=O)O)CCC(C)(C)C3)nc1OC [Compound #94, 2-[(5,6-Dimethoxypyridine-2-carbonyl)amino]-6,6-dimethyl-5,7-dihydro-4H-benzothiophene-3-carboxylic acid]	660
CC1(C)CCc2c(sc(NC(=O)c3ccccn3)c2C(=O)O)C1 [Compound #96, 6,6-Dimethyl-2-(pyridine-2-carbonylamino)-5,7-dihydro-4H-benzothiophene-3-carboxylic acid]	800
CC1(C)CCc2sc(NC(=O)c3cccc(OC(F)F)c3)c(C(=O)O)c21 [Compound #98, 2-[[3-(Difluoromethoxy)benzoyl]amino]-4,4-dimethyl-5,6-dihydrocyclopenta[b]thiophene-3-carboxylic acid]	800
Cc1ccccc1C(=O)Nc1sc2c(c1C(=O)O)CCC(C#N)(c1ccccc1)C2 (stereo not drawn) [Compound #105, 6-Cyano-2-[(2-methylbenzoyl)amino]-6-phenyl-5,7-dihydro-4H-benzothiophene-3-carboxylic acid]	1080
O=C(Nc1sc2c(c1C(=O)O)CCC(F)(F)C2)c1ccccc1 [Compound #117, 2-Benzamido-6,6-difluoro-5,7-dihydro-4H-benzothiophene-3-carboxylic acid]	1900
CC1(C)Cc2c(sc(NC(=O)c3ccc(NC4CCNCC4)cc3)c2C(=O)O)C(C)(C)C1 [Compound #131, hydrochloride salt]	350
CC(=O)N1CC(Nc2ccc(C(=O)Nc3sc4c(c3C(=O)O)CC(C)(C)CC4(C)C)cc2)C1 [Compound #133, 2-[[4-[(1-Acetylazetidin-3-yl)amino]benzoyl]amino]-5,5,7,7-tetramethyl-4,6-dihydrobenzothiophene-3-carboxylic acid]	750
CC1(C)Cc2c(sc(NC(=O)c3ccc(NC4COC4)cc3)c2C(=O)O)C(C)(C)C1 [Compound #139, 5,5,7,7-Tetramethyl-2-[[4-(oxetan-3-ylamino)benzoyl]amino]-4,6-dihydrobenzothiophene-3-carboxylic acid]	11
COCCCNc1ccc(C(=O)Nc2sc3c(c2C(=O)O)CC(C)(C)CC3(C)C)cc1 [Compound #140, 2-[[4-(3-Methoxypropylamino)benzoyl]amino]-5,5,7,7-tetramethyl-4,6-dihydrobenzothiophene-3-carboxylic acid]	3.4
CC1(C)Cc2c(sc(NC(=O)c3ccc(NCC4CCCOC4)cc3)c2C(=O)O)C(C)(C)C1 (stereo not drawn) [Compound #141, 5,5,7,7-Tetramethyl-2-[[4-(tetrahydropyran-3-ylmethylamino)benzoyl]amino]-4,6-dihydrobenzothiophene-3-carboxylic acid]	3.3
CC1(C)Cc2c(sc(NC(=O)c3ccc(NC4CCCOC4)cc3)c2C(=O)O)C(C)(C)C1 (stereo not drawn) [Compound #142, 5,5,7,7-Tetramethyl-2-[[4-(tetrahydropyran-3-ylamino)benzoyl]amino]-4,6-dihydrobenzothiophene-3-carboxylic acid]	6.4
CC1(C)Cc2c(sc(NC(=O)c3ccc(N4CC5(COC5)C4)cc3)c2C(=O)O)C(C)(C)C1 [Compound #143, 5,5,7,7-Tetramethyl-2-[[4-(2-oxa-6-azaspiro[3.3]heptan-6-yl)benzoyl]amino]-4,6-dihydrobenzothiophene-3-carboxylic acid]	160
CC1(C)Cc2c(sc(NC(=O)c3ccc(N4CCC5(CC4)COC5)cc3)c2C(=O)O)C(C)(C)C1 [Compound #144, 5,5,7,7-Tetramethyl-2-[[4-(2-oxa-7-azaspiro[3.5]nonan-7-yl)benzoyl]amino]-4,6-dihydrobenzothiophene-3-carboxylic acid]	35
COCCNc1ccc(C(=O)Nc2sc3c(c2C(=O)O)C(C)CC(C)(C)C3)cc1 (stereo not drawn) [Compound #145, 2-1-[[4-(2-Methoxyethylamino)benzoyl]amino]-4,6,6-trimethyl-5,7-dihydro-411-benzothiophene-3-carboxylic acid]	32
COC1CN(c2ccc(C(=O)Nc3sc4c(c3C(=O)O)C(C)(C)CC4)cc2)C1 [Compound #146, 2-[[4-(3-Methoxyazetidin-1-yl)benzoyl]amino]-4,4-dimethyl-5,6-dihydrocyclopenta[b]thiophene-3-carboxylicacid]	83
CC1(C)Cc2c(sc(NC(=O)c3ccc(N4CC(F)(F)C4)cc3)c2C(=O)O)C(C)(C)C1 [Compound #148, 2-[[4-(3,3-Difluoroazetidin-1-yl)benzoyl]amino]-5,5,7,7-tetramethyl-4,6-dihydrobenzothiophene-3-carboxylic acid]	2.6
CC1(C)Cc2c(sc(NC(=O)c3ccc(NC4CCCCC4)cc3)c2C(=O)O)C(C)(C)C1 [Compound #149, 2-[[4-(Cyclohexylamino)benzoyl]amino]-5,5,7,7-tetramethyl-4,6-dihydrobenzothiophene-3-carboxylic acid]	7.1
COCCN(C)c1ccc(C(=O)Nc2sc3c(c2C(=O)O)CC(C)(C)CC3(C)C)cc1 [Compound #150, 2-[[4-[2-Methoxyethyl(methyl)amino]benzoyl]amino]-5,5,7,7-tetramethyl-4,6-dihydrobenzothiophene-3-carboxylic acid]	3.9
